Laboratory results from patent US11564924B2, “Pharmaceutical composition formed by combining pyridoxamine compound and thiamine compound” (RENASCIENCE CO., LTD., priority 2014, dated 2023).

How the values were obtained:
schizophrenia patients = assay: Total PANSS score in schizophrenia patients given the pyridoxamine compound; type: in vivo, human; conditions: for Change from baseline in total PANSS score, Maximum / Change from baseline in total PANSS score, Median / Change from baseline in total PANSS score, Minimum / Change from baseline in total PANSS score, Mean change: FAS; for Change from baseline in total PANSS score, Mean change: 1200-2400 mg per day oral
From the text: The target subjects (subjects) of this test (administration of a pyridoxamine compound; hereinafter, this is also referred to as “drug administration”) were patients who were diagnosed with schizophrenia and met all of the following conditions (1) to (3):
Drug administration was initiated for nine subjects from whom consent was obtained. The observation period was defined as the period from the day on which consent was obtained (Day −14) to the day 2 weeks after the day of consent (Day 0), and the initial day of drug administration was defined as Day 1. The data of Day 1 is data immediately before the start of administration of the pyridoxamine compound. The drug administration period was defined as the 24-week period from the start of drug administration (Day 1 to Day 169).
In the drug administration, pyridoxamine dihydrochloride was used as the pyridoxamine compound and orally administered in an amount of 1200 mg, 1800 mg, or 2400 mg per day (administered three times a day, morning, noon, and before bedtime, in an amount of 400 mg, 600 mg, or 800 mg each time). In the drug administration period, the dose was increased or decreased within the above range according to the condition of each patient.
The effect of administration of the pyridoxamine compound (drug administration) was evaluated according to the Positive and Negative Syndrome Scale (PANSS) score and the concentration of pentosidine in blood of the schizophrenia patients.
The PANSS score was determined by SCI-PANSS, which uses a structured interview, according to the Positive and Negative Syndrome Scale (PANSS) manual (translated by Hiroshi Yamada, Kanji Masui, and Hirotsugu Kikumoto; Tokyo: Seiwa Shoten Co., Ltd., 1991). An interview for evaluation was conducted for 30 evaluation items. Each item was scored on a scale of 1 to 7. The sum of the scores was calculated, and the difference between the PANSS score on Day 1 and the PANSS score on each test day was determined. […] The subjects were prohibited from taking hypnotic drugs or antianxiety drugs within 4 hours before PANSS evaluation.

vitamin B1 deficiency = assay: Prevention of vitamin B1 deficiency by pyridoxamine compound in combination with thiamine compound; type: in vivo, human; conditions: seven schizophrenia patients; pyridoxamine dihydrochloride 1200 to 1800 mg per day oral for 24 weeks, with fursultiamine 75 mg/day oral from 2 to 21 weeks after start
[1] = test system: Wernicke's encephalopathy; assay: Wernicke's encephalopathy findings (MRI of the brain, symptoms) during drug administration; type: in vivo, human
Protocol: Immediately after the patient was suspected of having Wernicke's encephalopathy, oral administration of a thiamine compound (fursultiamine (Takeda Pharmaceutical Company Limited)) at a dose of 75 mg/day was initiated (administered once a day) and continued every day.
Immediately after the patient was suspected of having Wernicke's encephalopathy, intravenous administration of a thiamine compound (fursultiamine (Takeda Pharmaceutical Company Limited)) (300 mg/day) was performed, and then (from 10 weeks after the start of drug administration), oral administration of the thiamine compound at a dose of 100 to 50 mg/day was continued.

[2] = Blood kinetics of pyridoxamine compound in people with reduced renal function; type: in vivo, human; conditions: 150 mg pyridoxamine dihydrochloride oral
Protocol: As described in Experiment Example 1 above, administration of a pyridoxamine compound increases not only the blood pyridoxamine concentration, but also the blood pyridoxal concentration. Rather, in blood, the pyridoxal concentration was higher than the pyridoxamine concentration. Thus, changes in the serum concentrations of pyridoxamine, pyridoxal, pyridoxine, and 4-pyridoxic acid after administration of a pyridoxamine compound were observed over time.
More specifically, 150 mg of pyridoxamine dihydrochloride was orally administered to each of six people with reduced renal function (subjects) (average age: 56 years old, average body weight: 67 kg). Blood was collected 0.5, 1, 1.5, 2, 2.5, 3, 4, 5, 6, 8, 10, and 12 hours after the administration, and the serums were collected. Measurement of the serum concentrations of pyridoxamine, pyridoxal, pyridoxine, and 4-pyridoxic acid was outsourced to Shin Nippon Biomedical Laboratories, Ltd.

[3] = test system: vitamin B1 in human whole blood; assay: In vitro effect on vitamin B1 concentration in human whole blood; conditions: human whole blood, 5, 50, 500 μg/mL, 37° C.
From the text: In addition, as described in Experiment Example 1 and Experiment Example 2, administration of a pyridoxamine compound increases not only the serum pyridoxamine concentration, but also the serum pyridoxal concentration, and thus, pyridoxamine and pyridoxal were both used as test substances for the investigation.
Blood was collected from a human using EDTA⋅2K as an anticoagulant. In addition, pyridoxamine dihydrochloride (Sigma-Aldrich Japan) was used as pyridoxamine, and pyridoxal hydrochloride (Nacalai Tesque, Inc.) was used as pyridoxal. They were dissolved at 0.5, 5, and 50 mg/mL in physiological saline to prepare test solutions. 10 μL of each test solution was individually added per mL of the whole blood collected above (test samples). The final concentrations of each test substance in the test samples were 5, 50, 500 μg/mL. Further, a vehicle was prepared by adding 10 μl of physiological saline to 1 ml of the whole blood. The vehicle and the test samples were incubated at 37° C. for 1 hour or 16 hours and then immediately frozen. Measurement of the vitamin B1 concentrations in the whole blood before the start of the incubation to which neither the physiological saline nor any test solution was added (baseline: indicated by “BL” in FIG. 4), and in the vehicle and in each test sample after the incubation, was outsourced to SRL Inc., and the measurement was performed using LC/MS/MS.

Cc1ncc(CO)c(CN)c1O.Cl.Cl [pyridoxamine dihydrochloride]
Change from baseline in total PANSS score, Maximum (schizophrenia patients; Day 15 (2 w)): 12
Change from baseline in total PANSS score, Median (schizophrenia patients; Day 15 (2 w)): 3.0
Change from baseline in total PANSS score, Minimum (schizophrenia patients; Day 15 (2 w)): −44
Change from baseline in total PANSS score, Mean change (schizophrenia patients; Day 15 (2 w)): −3.7
Change from baseline in total PANSS score, Maximum (schizophrenia patients; Day 29 (4 w)): 10
Change from baseline in total PANSS score, Median (schizophrenia patients; Day 29 (4 w)): 1.0
Change from baseline in total PANSS score, Minimum (schizophrenia patients; Day 29 (4 w)): −49
Change from baseline in total PANSS score, Mean change (schizophrenia patients; Day 29 (4 w)): −4.4
Change from baseline in total PANSS score, Maximum (schizophrenia patients; Day 57 (8 w)): 13
Change from baseline in total PANSS score, Median (schizophrenia patients; Day 57 (8 w)): 1.0
Change from baseline in total PANSS score, Minimum (schizophrenia patients; Day 57 (8 w)): −58
Change from baseline in total PANSS score, Mean change (schizophrenia patients; Day 57 (8 w)): −5.0
Change from baseline in total PANSS score, Maximum (schizophrenia patients; Day 85 (12 w)): 21
Change from baseline in total PANSS score, Median (schizophrenia patients; Day 85 (12 w)): −3.0
Change from baseline in total PANSS score, Minimum (schizophrenia patients; Day 85 (12 w)): −65
Change from baseline in total PANSS score, Mean change (schizophrenia patients; Day 85 (12 w)): −7.3
Change from baseline in total PANSS score, Maximum (schizophrenia patients; Day 113 (16 w)): 8
Change from baseline in total PANSS score, Median (schizophrenia patients; Day 113 (16 w)): −5.0
Change from baseline in total PANSS score, Minimum (schizophrenia patients; Day 113 (16 w)): −69
Change from baseline in total PANSS score, Mean change (schizophrenia patients; Day 113 (16 w)): −12.2
Change from baseline in total PANSS score, Maximum (schizophrenia patients; Day 141 (20 w)): 17
Change from baseline in total PANSS score, Median (schizophrenia patients; Day 141 (20 w)): −1.5
Change from baseline in total PANSS score, Minimum (schizophrenia patients; Day 141 (20 w)): −64
Change from baseline in total PANSS score, Mean change (schizophrenia patients; Day 141 (20 w)): −9.6
Change from baseline in total PANSS score, Maximum (schizophrenia patients; Day 169 (24 w)): 14
Change from baseline in total PANSS score, Median (schizophrenia patients; Day 169 (24 w)): −7.5
Change from baseline in total PANSS score, Minimum (schizophrenia patients; Day 169 (24 w)): −69
Change from baseline in total PANSS score, Mean change (schizophrenia patients; Day 169 (24 w)): −11.4
Change from baseline in total PANSS score, Maximum (schizophrenia patients; Final evaluation time point): 14
Change from baseline in total PANSS score, Median (schizophrenia patients; Final evaluation time point): −5.0
Change from baseline in total PANSS score, Minimum (schizophrenia patients; Final evaluation time point): −69
Change from baseline in total PANSS score, Mean change (schizophrenia patients; Final evaluation time point): −10.6
PANSS score decreased by an average of (schizophrenia patients; day 15 after the start of drug administration (Day 15)): 3.7 points
PANSS score decreased by an average of (schizophrenia patients; day 113 after the start of drug administration (Day 113)): 12.2 points
effect on the symptom of schizophrenia (schizophrenia patients; schizophrenia patients, 24-week administration): effective in improving the symptom of schizophrenia
findings suggestive of vitamin B1 deficiency (vitamin B1 deficiency): no findings suggestive of vitamin B1 deficiency were observed in any of the seven schizophrenia patients
MRI of the brain finding during drug administration ([1]; patient ID No. 3, 6 weeks after the start of drug administration, after an epilepsy-like symptom): findings suggestive of Wernicke's encephalopathy
MRI of the brain finding during drug administration ([1]; patient ID No. 6, 9 weeks after the start of drug administration): findings suggestive of Wernicke's encephalopathy
change in the concentration of pyridoxine (PN) ([2]; serum up to 12 hours): No large change
time after administration at which the serum concentration of pyridoxamine (unchanged form) peaked ([2]; six people with reduced renal function): 2 h
change in whole blood vitamin B1 concentration ([3]; 1 hour incubation): no changes
change in whole blood vitamin B1 concentration ([3]; 16 hours incubation): decrease was similar to that in the vehicle
